According to PubChem BioAssay AID1963835 (Molecular Pharmacology Branch, DTP, NCI, 2024):

Test system: 699152-130-R-J1-PDC complex spheroid viability
Assay: Anticancer human tumor 699152-130-R-J1-PDC patient-derived pancreatic carcinoma cell line growth inhibition [POLQ]
Conditions: for IC50: curve of first compound; for viability, T/C: stronger effect = lower value
Procedure, shortened: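 Growth inhibition in 3D: complex spheroids (tumor PDC, HUVEC, MSC) treated with POLQ inhibitor combinations; where Cmax unknown, highest tested concentration 10 microM, except SN-38 at 1 microM.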

[1] = second compound 0.0316 µM, first compound 0.0316 µM
[2] = second compound 0.0316 µM, first compound 0.1 µM
[3] = second compound 0.0316 µM, first compound 0.316 µM
[4] = second compound 0.0316 µM, first compound 1 µM
[5] = second compound 0.0316 µM, first compound 3.16 µM
[6] = second compound 0.0316 µM, first compound 10 µM
[7] = second compound 0.1 µM, first compound 0.0316 µM
[8] = second compound 0.1 µM, first compound 0.1 µM
[9] = second compound 0.1 µM, first compound 0.316 µM
[10] = second compound 0.1 µM, first compound 1 µM
[11] = second compound 0.1 µM, first compound 3.16 µM
[12] = second compound 0.1 µM, first compound 10 µM
[13] = second compound 0.316 µM, first compound 0.0316 µM
[14] = second compound 0.316 µM, first compound 0.1 µM
[15] = second compound 0.316 µM, first compound 0.316 µM
[16] = second compound 0.316 µM, first compound 1 µM
[17] = second compound 0.316 µM, first compound 3.16 µM
[18] = second compound 0.316 µM, first compound 10 µM
[19] = second compound 1 µM, first compound 0.0316 µM
[20] = second compound 1 µM, first compound 0.1 µM
[21] = second compound 1 µM, first compound 0.316 µM
[22] = second compound 1 µM, first compound 1 µM
[23] = second compound 1 µM, first compound 3.16 µM
[24] = second compound 1 µM, first compound 10 µM
[25] = second compound 3.16 µM, first compound 0.0316 µM
[26] = second compound 3.16 µM, first compound 0.1 µM
[27] = second compound 3.16 µM, first compound 0.316 µM
[28] = second compound 3.16 µM, first compound 1 µM
[29] = second compound 3.16 µM, first compound 3.16 µM
[30] = second compound 3.16 µM, first compound 10 µM
[31] = second compound 10 µM, first compound 0.0316 µM
[32] = second compound 10 µM, first compound 0.1 µM
[33] = second compound 10 µM, first compound 0.316 µM
[34] = second compound 10 µM, first compound 1 µM
[35] = second compound 10 µM, first compound 3.16 µM
[36] = second compound 10 µM, first compound 10 µM
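Note: spheroids exposed to agents for 7 days before viability reading.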
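Throughout, for viability, T/C: percent of DMSO vehicle control viability so 100% = vehicle and 0% = no viable signal.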

SMILES: CC(=O)O[C@H]1C(=O)[C@@]2(C)[C@H]([C@H](OC(=O)c3ccccc3)[C@]3(O)C[C@H](OC(=O)[C@H](O)[C@@H](NC(=O)c4ccccc4)c4ccccc4)C(C)=C1C3(C)C)[C@]1(OC(C)=O)CO[C@@H]1C[C@@H]2O + Cc1cccc(N(C)C(=O)C2C(O)CCN2c2nc(C)cc(C(F)(F)F)c2C#N)c1
- IC50 (second compound 0.0316 µM): > 3 µM
- IC50 (second compound 0.1 µM): > 3 µM
- IC50 (second compound 0.316 µM): > 3 µM
- IC50 (second compound 1 µM): > 3 µM
- IC50 (second compound 3.16 µM): > 3 µM
- IC50 (second compound 10 µM): > 3 µM
- viability, T/C (second compound 0.0316 µM, first compound 0.00949 µM): 83.5%
- viability, T/C (second compound 0.0316 µM, first compound 0.03 µM): 57.6%
- viability, T/C (second compound 0.0316 µM, first compound 0.0949 µM): 56.1%
- viability, T/C (second compound 0.0316 µM, first compound 0.3 µM): 56.9%
- viability, T/C (second compound 0.0316 µM, first compound 0.949 µM): 67%
- viability, T/C (second compound 0.0316 µM, first compound 3 µM): 65.9%
- viability, T/C (second compound 0.1 µM, first compound 0.00949 µM): 79.7%
- viability, T/C (second compound 0.1 µM, first compound 0.03 µM): 57.1%
- viability, T/C (second compound 0.1 µM, first compound 0.0949 µM): 51%
- viability, T/C (second compound 0.1 µM, first compound 0.3 µM): 57.7%
- viability, T/C (second compound 0.1 µM, first compound 0.949 µM): 72.2%
- viability, T/C (second compound 0.1 µM, first compound 3 µM): 64.9%
- viability, T/C (second compound 0.316 µM, first compound 0.00949 µM): 74.5%
- viability, T/C (second compound 0.316 µM, first compound 0.03 µM): 60.9%
- viability, T/C (second compound 0.316 µM, first compound 0.0949 µM): 53.3%
- viability, T/C (second compound 0.316 µM, first compound 0.3 µM): 59.4%
- viability, T/C (second compound 0.316 µM, first compound 0.949 µM): 64.9%
- viability, T/C (second compound 0.316 µM, first compound 3 µM): 64.1%
- viability, T/C (second compound 1 µM, first compound 0.00949 µM): 81.2%
- viability, T/C (second compound 1 µM, first compound 0.03 µM): 54.8%
- viability, T/C (second compound 1 µM, first compound 0.0949 µM): 57.9%
- viability, T/C (second compound 1 µM, first compound 0.3 µM): 61.3%
- viability, T/C (second compound 1 µM, first compound 0.949 µM): 62.4%
- viability, T/C (second compound 1 µM, first compound 3 µM): 71.8%
- viability, T/C (second compound 3.16 µM, first compound 0.00949 µM): 82.8%
- viability, T/C (second compound 3.16 µM, first compound 0.03 µM): 62.1%
- viability, T/C (second compound 3.16 µM, first compound 0.0949 µM): 58.8%
- viability, T/C (second compound 3.16 µM, first compound 0.3 µM): 65.2%
- viability, T/C (second compound 3.16 µM, first compound 0.949 µM): 69.7%
- viability, T/C (second compound 3.16 µM, first compound 3 µM): 79.1%
- viability, T/C (second compound 10 µM, first compound 0.00949 µM): 84%
- viability, T/C (second compound 10 µM, first compound 0.03 µM): 57%
- viability, T/C (second compound 10 µM, first compound 0.0949 µM): 69.1%
- viability, T/C (second compound 10 µM, first compound 0.3 µM): 65.9%
- viability, T/C (second compound 10 µM, first compound 0.949 µM): 72.1%
- viability, T/C (second compound 10 µM, first compound 3 µM): 82.8%

SMILES: COc1cc(C2c3cc4c(cc3C(OC3OC5COC(C)OC5C(O)C3O)C3COC(=O)C23)OCO4)cc(OC)c1O (stereo unspecified) + Cc1cccc(N(C)C(=O)C2C(O)CCN2c2nc(C)cc(C(F)(F)F)c2C#N)c1
- IC50 (second compound 0.0316 µM): 6.73 µM
- IC50 (second compound 0.1 µM): > 10 µM
- IC50 (second compound 0.316 µM): 7.65 µM
- IC50 (second compound 1 µM): > 10 µM
- IC50 (second compound 3.16 µM): > 10 µM
- IC50 (second compound 10 µM): > 10 µM
- viability, T/C [1]: 111%
- viability, T/C [2]: 108%
- viability, T/C [3]: 76.4%
- viability, T/C [4]: 72.2%
- viability, T/C [5]: 52.5%
- viability, T/C [6]: 47.6%
- viability, T/C [7]: 101%
- viability, T/C [8]: 84.6%
- viability, T/C [9]: 72.9%
- viability, T/C [10]: 72.8%
- viability, T/C [11]: 55%
- viability, T/C [12]: 50.8%
- viability, T/C [13]: 102%
- viability, T/C [14]: 96.3%
- viability, T/C [15]: 83.4%
- viability, T/C [16]: 74.2%
- viability, T/C [17]: 58.9%
- viability, T/C [18]: 47.2%
- viability, T/C [19]: 112%
- viability, T/C [20]: 86.1%
- viability, T/C [21]: 81.9%
- viability, T/C [22]: 74.9%
- viability, T/C [23]: 63.7%
- viability, T/C [24]: 47.3%
- viability, T/C [25]: 98%
- viability, T/C [26]: 101%
- viability, T/C [27]: 71.8%
- viability, T/C [28]: 74.4%
- viability, T/C [29]: 62.2%
- viability, T/C [30]: 51.2%
- viability, T/C [31]: 101%
- viability, T/C [32]: 77.7%
- viability, T/C [33]: 70.6%
- viability, T/C [34]: 75.9%
- viability, T/C [35]: 71.1%
- viability, T/C [36]: 55.9%

SMILES: COc1cccc2c1C(=O)c1c(O)c3c(c(O)c1C2=O)CC(O)(C(=O)CO)CC3OC1CC(N)C(O)C(C)O1 (stereo unspecified) + Cc1cccc(N(C)C(=O)C2C(O)CCN2c2nc(C)cc(C(F)(F)F)c2C#N)c1
- IC50 (second compound 0.0316 µM): 0.222 µM
- IC50 (second compound 0.1 µM): 0.244 µM
- IC50 (second compound 0.316 µM): 0.279 µM
- IC50 (second compound 1 µM): 0.276 µM
- IC50 (second compound 3.16 µM): 0.275 µM
- IC50 (second compound 10 µM): 0.257 µM
- viability, T/C [1]: 102%
- viability, T/C [2]: 59%
- viability, T/C [3]: 47.5%
- viability, T/C [4]: 34%
- viability, T/C [5]: 3.59%
- viability, T/C [6]: 10.4%
- viability, T/C [7]: 81.1%
- viability, T/C [8]: 61.3%
- viability, T/C [9]: 47%
- viability, T/C [10]: 31.3%
- viability, T/C [11]: 3.36%
- viability, T/C [12]: 8.95%
- viability, T/C [13]: 85.7%
- viability, T/C [14]: 66%
- viability, T/C [15]: 49.5%
- viability, T/C [16]: 29.6%
- viability, T/C [17]: 3.68%
- viability, T/C [18]: 10.9%
- viability, T/C [19]: 81.9%
- viability, T/C [20]: 68.5%
- viability, T/C [21]: 46.8%
- viability, T/C [22]: 28.7%
- viability, T/C [23]: 4.78%
- viability, T/C [24]: 12.1%
- viability, T/C [25]: 85%
- viability, T/C [26]: 60.7%
- viability, T/C [27]: 55.2%
- viability, T/C [28]: 20%
- viability, T/C [29]: 6.82%
- viability, T/C [30]: 10.3%
- viability, T/C [31]: 84.4%
- viability, T/C [32]: 60.2%
- viability, T/C [33]: 53.2%
- viability, T/C [34]: 12%
- viability, T/C [35]: 7.55%
- viability, T/C [36]: 10.8%
